Here are results for nine molecules from DBAASP.

Common to all, as to experiment: ≥ marks a high value that may be exact or a test limit, other limits are often not marked, values filed in µg/mL are converted to µM
Assay [1] has as its system Staphylococcus aureus ATCC 9144.
The test system of assay [2] is Candida albicans ATCC 10231.
For assay [3], the system named is Corynebacterium glutamicum ATCC 13032.
Assay [4] has as its system Aureobasidium pullulans.
Assay [5] concerns Pseudomonas aeruginosa ATCC 27853.
For assay [6], the system named is Escherichia coli ATCC 25922.
The subject of assay [7] is Acinetobacter baumannii.
In assay [8] the test system is Staphylococcus aureus.
The test system of assay [9] is Pseudomonas aeruginosa.
Assay [10] concerns Enterococcus faecalis.
Assay [11] relates to Cryptococcus neoformans ATCC 28957.
The subject of assay [12] is Candida albicans ATCC 90028.
Assay [13] has as its system Bacillus subtilis ATCC 23857.
The test system of assay [14] is Micrococcus luteus.
For assay [15], the system named is Bacillus megaterium.
Assay [16] has as its system Klebsiella pneumoniae.
For assay [17], the system named is Escherichia coli K-12.
The test system of assay [18] is Staphylococcus aureus NCTC 8325-4.
Assay [19] deals with Pseudomonas aeruginosa PAO1.
The subject of assay [20] is Escherichia coli UB1005.
The subject of assay [21] is Enterococcus faecalis ATCC 29212.
For assay [22], the system named is Staphylococcus aureus ATCC 29213.
The subject of assay [23] is Salmonella enterica subsp. enterica serovar Typhimurium C77-31.
In assay [24] the test system is Staphylococcus aureus ATCC 43300.
In assay [25] the test system is Staphylococcus epidermidis ATCC 12228.
For assay [26], the system named is Bacillus subtilis CMCC 63501.
For assay [27], the system named is Salmonella enterica subsp. enterica serovar Pullorum C79-13.
Assay [28] relates to Proteus mirabilis.
Assay [29] concerns Streptococcus pyogenes.
The subject of assay [30] is Salmonella enterica subsp. enterica serovar Typhimurium ATCC 14028.
For assay [31], the system named is Escherichia coli.
The subject of assay [32] is Staphylococcus epidermidis.

SMILES strings stand for the structures. In brackets after ≈: the same amount, converted by molar mass.

In general, MIC refers to the least concentration at which growth counts as inhibited. For `CC(C)[C@H](NC(=O)[C@H](CCCCN)NC(=O)[C@H](C)NC(=O)[C@@H](NC(=O)[C@@H](NC(=O)[C@H](CCCN=C(N)N)NC(=O)[C@H](CCCN=C(N)N)NC(=O)[C@H](Cc1c[nH]c2ccccc12)NC(=O)[C@H](Cc1c[nH]c2ccccc12)NC(=O)CN)[C@@H](C)O)C(C)C)C(=O)N[C@@H](C)C(=O)N[C@@H](CCCCN)C(N)=O` [GWWRRTVAKVAK], the MIC is at least 100 µM in assay [1]; 25 µM (≈ 36.4 µg/mL) in assay [2]; 1.6 µM (≈ 2.33 µg/mL) in [3]; at least 50 µM in assay [4]; 12.5 µM (≈ 18.2 µg/mL) in assay [5]; 12.5 µM (≈ 18.2 µg/mL) in [6].

`CC(C)C[C@H](NC(=O)[C@H](CC(C)C)NC(=O)[C@H](CCCCN)NC(=O)[C@H](CCCCN)NC(=O)[C@H](C)NC(=O)[C@H](CC(C)C)NC(=O)[C@H](C)NC(=O)[C@H](CCCCN)NC(=O)[C@H](CC(C)C)NC(=O)[C@H](Cc1c[nH]c2ccccc12)NC(=O)[C@H](Cc1c[nH]c2ccccc12)NC(=O)[C@H](CCCN=C(N)N)NC(=O)[C@H](Cc1c[nH]c2ccccc12)NC(=O)[C@H](CCCCN)NC(=O)[C@@H](N)CCCCN)C(N)=O` [KKWRWWLKALAKKLL]: the MIC in assay [7] was 0.203 µM (≈ 0.4 µg/mL); in assay [8], 0.254 µM (≈ 0.5 µg/mL); in assay [9] it was 0.61 µM (≈ 1.2 µg/mL); in assay [10], 0.356 µM (≈ 0.7 µg/mL).

Take `CC[C@H](C)[C@H](N)C(=O)N[C@H](C(=O)N[C@@H](CC(N)=O)C(=O)N[C@@H](Cc1cnc[nH]1)C(=O)N[C@@H](CC(C)C)C(=O)N[C@H](C(=O)N[C@@H](CCCCN)C(=O)N[C@@H](CC(C)C)C(=O)N[C@@H](Cc1ccccc1)C(=O)N[C@@H](CC(=O)O)C(=O)N[C@@H](CCCCN)C(=O)NCC(=O)N[C@@H](CC(C)C)C(=O)N[C@@H](CC(N)=O)C(=O)N[C@@H](CO)C(=O)N[C@H](C(=O)N[C@H](C(=O)N[C@@H](CC(N)=O)C(=O)N[C@@H](CC(C)C)C(=O)N[C@@H](CCCN=C(N)N)C(N)=O)C(C)C)[C@@H](C)CC)C(C)C)C(C)C` [IVNHLVKLFDKGLNSIVNLR]: the minimal inhibitory concentration (MIC) was at least 128 µM in [11], at least 128 µM in [12] and at least 64 µM in assay [13].

As for `C[C@H](NC(=O)[C@H](CCCCN)NC(=O)[C@H](Cc1c[nH]c2ccccc12)NC(=O)CNC(=O)[C@H](Cc1c[nH]c2ccccc12)NC(=O)[C@H](Cc1c[nH]c2ccccc12)NC(=O)[C@H](CCCCN)NC(=O)[C@H](CCCCN)NC(=O)CN)C(=O)N[C@@H](CCCCN)C(N)=O` [GKKWWGWKAK], the MIC was at least 196 µM in assay [1]; 24.6 µM (≈ 31.3 µg/mL) in [2]; 1.57 µM (≈ 2 µg/mL) in [3]; 24.6 µM (≈ 31.3 µg/mL) in [4]; 12.2 µM (≈ 15.6 µg/mL) in assay [14]; 12.2 µM (≈ 15.6 µg/mL) in assay [13]. Also, the figures for the MIC in assay [5], in [15] and in assay [6] were 196 µM (≈ 250 µg/mL), 0.785 µM (≈ 0.999 µg/mL) and 24.6 µM (≈ 31.3 µg/mL), respectively.

For the molecule `CC[C@H](C)[C@H](N)C(=O)N[C@@H](CCCCN)C(=O)N[C@@H](CCCCN)C(=O)N[C@H](C(=O)N[C@H](C(=O)N[C@@H](CCCCN)C(=O)N[C@@H](CCCCN)C(=O)N[C@H](C(=O)N[C@H](C(=O)N[C@@H](CCCCN)C(N)=O)[C@@H](C)CC)[C@@H](C)CC)[C@@H](C)CC)[C@@H](C)CC` [IKKIIKKIIK], the minimum inhibitory concentration (MIC) in assay [16] was above 500 µM; in assay [17], at least 500 µM; in assay [18] it was at least 500 µM; in assay [19] it was above 500 µM.

In the case of `CC[C@H](C)[C@H](NC(=O)[C@H](CCCN=C(N)N)NC(=O)[C@H](CCCCN)NC(=O)[C@H](Cc1ccccc1)NC(=O)[C@H](CCC(=O)O)NC(=O)[C@H](CCCCN)NC(=O)CN)C(=O)N[C@H](C(=O)N[C@@H](Cc1c[nH]c2ccccc12)C(=O)N[C@@H](CC(C)C)C(=O)N[C@@H](CO)C(=O)N[C@@H](CCCCN)C(=O)N[C@H](C(=O)N[C@@H](C)C(=O)N[C@@H](CCCCN)C(=O)N[C@@H](CCCCN)C(=O)N[C@@H](CC(C)C)C(N)=O)[C@@H](C)O)C(C)C` [GKEFKRIVWLSKTAKKL], the minimal inhibitory concentration (MIC) in assay [20] was at least 128 µM; in assay [21] it was above 128 µM; in assay [22] it was above 128 µM; in assay [23], at least 128 µM; in assay [24], above 128 µM; in [25] it was above 128 µM. Also, the MIC in assay [5] is above 128 µM; in assay [26], at least 128 µM; in assay [27], 16 µM (≈ 32.5 µg/mL); in assay [6], 32 µM (≈ 65 µg/mL).

With `NC(N)=NCCC[C@H](NC(=O)[C@H](CCCN=C(N)N)NC(=O)[C@H](CCCN=C(N)N)NC(=O)[C@H](CCCN=C(N)N)NC(=O)[C@H](CCCN=C(N)N)NC(=O)[C@H](CCCN=C(N)N)NC(=O)[C@H](CCCN=C(N)N)NC(=O)[C@H](CCCN=C(N)N)NC(=O)[C@H](Cc1c[nH]c2ccccc12)NC(=O)[C@@H](N)Cc1c[nH]c2ccccc12)C(=O)O` [WWRRRRRRRR], the MIC was 5.49 µM (≈ 9 µg/mL) in assay [8], above 39 µM in assay [9], at least 39 µM in assay [28] and 0.61 µM (≈ 1 µg/mL) in assay [29].

For `C[C@H](NC(=O)[C@H](C)NC(=O)[C@H](CCCCN)NC(=O)[C@H](C)NC(=O)[C@H](C)NC(=O)[C@H](C)NC(=O)[C@H](CCCCN)NC(=O)[C@H](Cc1c[nH]c2ccccc12)NC(=O)[C@@H](N)Cc1c[nH]c2ccccc12)C(=O)N[C@@H](C)C(=O)N[C@@H](CCCCN)C(=O)N[C@@H](Cc1c[nH]c2ccccc12)C(=O)N[C@@H](Cc1c[nH]c2ccccc12)C(N)=O` [WWKAAAKAAAKWW], the MIC stood at 4 µM (≈ 6.29 µg/mL) in assay [20]; 4 µM (≈ 6.29 µg/mL) in [21]; 4 µM (≈ 6.29 µg/mL) in assay [22]; 8 µM (≈ 12.6 µg/mL) in assay [30]; 4 µM (≈ 6.29 µg/mL) in [25]; 8 µM (≈ 12.6 µg/mL) in [5]. For the same molecule, the figures for the MIC in assay [26], in assay [27] and in [6] were 4 µM (≈ 6.29 µg/mL), 2 µM (≈ 3.15 µg/mL) and 2 µM (≈ 3.15 µg/mL), respectively.

On to `CC[C@H](C)[C@H](NC(=O)CNC(=O)[C@H](CCCN=C(N)N)NC(=O)[C@H](Cc1ccc(O)cc1)NC(=O)[C@H](CC(C)C)NC(=O)[C@H](CCCCN)NC(=O)CNC(=O)[C@H](Cc1ccccc1)NC(=O)[C@@H](N)Cc1c[nH]c2ccccc12)C(=O)N[C@H](C(=O)N[C@@H](CO)C(=O)N[C@H](C(=O)N[C@H](C(=O)N[C@@H](CCCCN)C(=O)N[C@@H](CCCCN)C(=O)N[C@H](C(=O)N[C@@H](CCCCN)C(=O)NCC(=O)N[C@@H](CC(C)C)C(=O)N[C@@H](CC(C)C)C(=O)N[C@@H](CO)C(=O)NCC(=O)O)C(C)C)C(C)C)C(C)C)[C@@H](C)O` [WFGKLYRGITSVVKKVKGLLSG], for which the MIC in assay [7] came out at 1.3 µM (≈ 3.17 µg/mL); in assay [16] it was 1.3 µM (≈ 3.17 µg/mL); in assay [8], 10.3 µM (≈ 25.1 µg/mL); in assay [31], 1.3 µM (≈ 3.17 µg/mL); in assay [9], 2.6 µM (≈ 6.34 µg/mL); in assay [32] it was 2.6 µM (≈ 6.34 µg/mL). In [10], this molecule had an MIC of 2.6 µM (≈ 6.34 µg/mL).
